What was measured:
H226 (human lung cancer) = assay: Inhibition of cell proliferation (ATP luminescence or MTS assay), H226; type: cell-based; details: NCI-H226, 72 h, read-out: Cancer Cell Line: EC50 (nM) H226
Experimental: (§1) The cancer cells lines tested against were: H226 (human lung cancer); N87 (human gastric cancer), OVCAR3 (human ovarian cancer), HCT116 (human colon cancer), HCT116NM46 (HCT116 subline with multi-drug resistance, including to paclitaxel), and ACR (human breast cancer, multi-drug resistant). Table II also includes comparative data against reference compounds (A)-(G) not according to this invention:
(§2) The ability of test compounds to inhibit cell proliferation was measured by either an ATP luminescence assay or an MTS cell proliferation assay. […] In some instances, both methods were used.
(§3) This is a general procedure for an ATP luminescence assay: Cells are seeded at 1×10^3 cells/well in 96-well plates for 3 h for ATP CellTiterGlo™ assays, respectively. Serial dilutions (1:3) of compounds are added to the wells. Plates are allowed to incubate for 72 h. A CellTiterGlo™ cell viability kit from Promega is used to measure ATP content of cells treated with test compounds following manufacturer's instruction. A decrease in the ATP content is a measure of decrease in cellular viability. The EC50 value—the concentration at which an agent reduces cell viability by 50% of the maximum effect—is determined using PRISM™ software, version 5.0 (GraphPad Software, La Jolla, Calif., USA).
(§4) The following is a description of the MTS cell proliferation assay: CellTiter 96 Aqueous Non-Radioactive Cell proliferation Kit from Promega (Madison, Wis.) is used to determine the number of viable cells in cell proliferation assay. Tumor cells are plated at certain seeding densities in sterile 384-well black clear bottom Matrix plates at 40 μL per well and incubated overnight at 37° C. in 5% CO2 before assaying. On the next day, one set of cell plates (T0 plates) is used to determine time zero cell density, and 3-(4,5-dimethylthiazol-2-yl)-5-(3-carboxymethoxyphenyl)-2-(4-sulfophenyl)-2H-tetrazolium is added at 4 μL/well into T0 plates followed by incubation at 37° C. in 5% CO2 for three hours. This tetrazolium reagent is bioreduced by […] to form a formazan product which is soluble in aqueous solution. Absorbance at 490 nm is measured on an Envision reader (Perkin Elmer, Boston, Mass.). On the same day, compounds are added into remaining cell plates (T72 plates) and incubated at 37° C. in 5% CO2. After 72 hours, 4 μL MTS reagents are then added into those cell plates. The plates are further incubated at 37° C. in 5% CO2 for three hours and the absorbance values at A490 were measured on an Envision reader.

[1] = test system: ADR (human breast cancer, multi-drug resistant); assay: Inhibition of cell proliferation (ATP luminescence or MTS assay), ADR; type: cell-based; details: 72 h, read-out: Cancer Cell Line: EC50 (nM) ADR
Experimental: as §1, §2
This is a general procedure for an ATP luminescence assay: Cells are seeded at 1×10^3 cells/well in 96-well plates for 3 h for ATP CellTiterGlo™ assays, respectively. Serial dilutions (1:3) of compounds are added to the wells. Plates are allowed to incubate for 72 h. […]
The following is a description of the MTS cell proliferation assay: CellTiter 96 Aqueous Non-Radioactive Cell proliferation Kit from Promega (Madison, Wis.) is used to determine the number of viable cells in cell proliferation assay. […] Absorbance at 490 nm is measured on an Envision reader (Perkin Elmer, Boston, Mass.). […] The plates are further incubated at 37° C. in 5% CO2 for three hours and the absorbance values at A490 were measured on an Envision reader.

[2] = test system: N87 (human gastric cancer); assay: Inhibition of cell proliferation (ATP luminescence or MTS assay), N87; type: cell-based; details: 72 h, read-out: Cancer Cell Line: EC50 (nM) N87
Experimental: as §1, §2, §3, §4

[3] = test system: OVCAR3 (human ovarian cancer); assay: Inhibition of cell proliferation (ATP luminescence or MTS assay), OVCAR3; type: cell-based; details: OVCAR-3, 72 h, read-out: Cancer Cell Line: EC50 (nM) OVCAR3
Experimental: as §1, §2, §3, §4

[4] = test system: HCT116/VM46 (HCT116 subline with multi-drug resistance, including to paclitaxel); assay: Inhibition of cell proliferation (ATP luminescence or MTS assay), HCT116/VM46; type: cell-based; details: Homo sapiens, HCT-116/VM46, multi-drug resistant HCT116 subline, 72 h, read-out: Cancer Cell Line: EC50 (nM) HCT116/VM46
Experimental: as §1, §2, §3, §4

[5] = test system: HCT116 (human colon cancer); assay: Inhibition of cell proliferation (ATP luminescence or MTS assay), HCT116; type: cell-based; details: HCT-116, 72 h, read-out: Cancer Cell Line: EC50 (nM) HCT116
Experimental: as §1, §2, §3, §4

cancer cells [6] = details: Kaur et al. 2006; cited from earlier work
cancer cells [7] = details: cancer cells versus normal cells; Kaur et al. 2006; cited from earlier work
[8] = test system: various cancer cell lines; details: Kaur et al. 2006; cited from earlier work
[9] = in vitro assays; Kaur et al. 2006; cited from earlier work

Row | Compound | EC50 (H226 (human lung cancer)) | EC50 [1] | EC50 [2] | EC50 [3] | EC50 [4] | EC50 [5] | antiproliferative potency compared with paclitaxel and vinblastine (cancer cells [6]) | induction of apoptosis (cancer cells [7]) | activity in xenograft assays [8] | antiangiogenic properties [9]
1 | CCCN(C(=O)[C@@H](NC(=O)[C@H]1CCCCN1C)[C@@H](C)CC)[C@H](C[C@@H](OC(=O)NC)c1nc(C(=O)N[C@H](CCC(=O)O)Cc2ccc(N)cc2)cs1)C(C)C [(E), reference compound] | 28 nM | 189 nM | – | – | – | – | – | – | – | –
2 | CCCN(C(=O)[C@@H](NC(=O)[C@H]1CCCCN1C)[C@@H](C)CC)[C@H](C[C@@H](OC(C)=O)c1nc(C(=O)N[C@@H](Cc2ccc(N)cc2)CC(C)(C)C(=O)O)cs1)C(C)C [(Ia-1)] | 0.089 nM | – | 0.03 to 0.2 nM | 0.016 to 0.04 nM | – | – | – | – | – | –
3 | CCCN(C(=O)[C@@H](NC(=O)[C@H]1CCCCN1C)[C@@H](C)CC)[C@H](C[C@@H](OC(=O)NC)c1nc(C(=O)N[C@@H](Cc2ccc(N)cc2)CC(C)(C)C(=O)O)cs1)C(C)C [(Ia-2), (S)-5-(4-aminophenyl)-4-(2-((5R,7R,10S)-10-((S)-sec-butyl)-7-isopropyl-12-((R)-1-methylpiperidin-2-yl)-3,9,12-trioxo-8-propyl-4-oxa-2,8,11-triazadodecan-5-yl)thiazole-4-carboxamido)-2,2-dimethylpentanoic acid] | 0.33 to 1.1 nM | 9.5 nM | 0.65 to 1 nM | 0.07 to 0.1 nM | 1.22 nM | 0.58 nM | – | – | – | –
4 | CCCN(C(=O)[C@@H](NC(=O)[C@H]1CCCCN1C)C(C)C)[C@H](C[C@@H](OC(C)=O)c1nc(C(=O)N[C@@H](Cc2ccc(N)cc2)CC(C)(C)C(=O)O)cs1)C(C)C [(Ia-3)] | 0.086 nM | – | 0.16 nM | 0.019 nM | 0.19 nM | 0.13 nM | – | – | – | –
5 | CCCN(C(=O)[C@@H](NC(=O)[C@H]1CCCCN1C)[C@@H](C)CC)[C@H](C[C@@H](OC(=O)NC)c1nc(C(=O)N[C@@H](Cc2ccc(N)cc2)CC2(C(=O)O)CC2)cs1)C(C)C [(Ib-1), 1-((S)-3-(4-aminophenyl)-2-(2-((5R,7R,10S)-10-((S)-sec-butyl)-7-isopropyl-12-((R)-1-methylpiperidin-2-yl)-3,9,12-trioxo-8-propyl-4-oxa-2,8,11-triazadodecan-5-yl)thiazole-4-carboxamido)propyl)cyclopropanecarboxylic acid] | 0.63 nM | – | 1.7 nM | 0.07 nM | – | – | – | – | – | –
6 | CCCN(C(=O)[C@@H](NC(=O)[C@H]1CCCCN1C)[C@@H](C)CC)[C@H](C[C@@H](OC(=O)NC)c1nc(C(=O)N[C@@H](Cc2ccc(N)cc2)CC2(C(=O)OC)CC2)cs1)C(C)C [(Ib-2), methyl 1-((S)-3-(4-aminophenyl)-2-(2-((5R,7R,10S)-10-((S)-sec-butyl)-7-isopropyl-12-((R)-1-methylpiperidin-2-yl)-3,9,12-trioxo-8-propyl-4-oxa-2,8,11-triazadodecan-5-yl)thiazole-4-carboxamido)propyl)cyclopropanecarboxylate] | 0.4 nM | – | 4.4 nM | 0.15 nM | – | – | – | – | – | –
7 | CCCN(C(=O)[C@@H](NC(=O)[C@H](NC)C(C)C)[C@@H](C)CC)[C@H](C[C@@H](OC(C)=O)c1nc(C(=O)N[C@@H](Cc2ccccc2)CC(C)(C)C(=O)O)cs1)C(C)C [(Ic-1), (S)-4-(2-((3R,6S,9R,11R)-6-((S)-sec-butyl)-3,9-diisopropyl-4,7,13-trioxo-8-propyl-12-oxa-2,5,8-triazatetradecan-11-yl)thiazole-4-carboxamido)-2,2-dimethyl-5-phenylpentanoic acid] | 0.038 nM | – | 0.2 nM | 0.012 nM | 0.51 nM | 0.064 nM | – | – | – | –
8 | CCCN(C(=O)[C@@H](NC(=O)[C@H](NC)C(C)C)[C@@H](C)CC)[C@H](C[C@@H](OC(=O)NC)c1nc(C(=O)N[C@@H](Cc2ccccc2)CC(C)(C)C(=O)O)cs1)C(C)C [(Ic-2)] | 0.31 nM | – | 0.37 nM | 0.04 nM | 7.5 nM | 0.26 nM | – | – | – | –
9 | CC[C@H](C)[C@H](NC(=O)[C@H]1CCCCN1C)C(=O)N(COC(=O)CC(C)C)[C@H](C[C@@H](OC(C)=O)c1nc(C(=O)N[C@@H](Cc2ccc(O)cc2)C[C@H](C)C(=O)O)cs1)C(C)C [tubulysin A] | – | – | – | – | – | – | more potent than paclitaxel and vinblastine | induced apoptosis in cancer cells but not in normal cells | active in xenograft assays | significant potential antiangiogenic properties

— patent US10077287B2, “Tubulysin analogs and methods of making and use” (priority 2014, dated 2018)
